Experimental data: US7754709B2 (Solvay Pharmaceuticals BV, priority 2003, dated 2010)
Values joined by “and” are separate entries in the source; they are usually repeats but may differ in a detail not shown here. Equal values may be shown once.

How the values were obtained:
Assay type in all cases: cell-based
[1] = target: T1, 17β-hydroxysteroid dehydrogenase type 3 (Homo sapiens, UniProt P37058); assay: Inhibition of 17β-HSD type 3 in MCF-7 cells stably expressing the isoenzyme (HPLC, tritium labeled androstenedione); details: 2 nM androstenedione; for inhibition at 1 µM: MCF7, 1 μM compound; for inhibition at 1 µM / inhibition at 10 µM: read-out: % Inhibition of the 17β-HSD enzyme type 3 (HSD3); for inhibition at 10 µM: MCF7, 10 μM compound
T1 construct: expressed in transfected cells; host or cells: MCF-7
T1 sequence (P37058 1-310): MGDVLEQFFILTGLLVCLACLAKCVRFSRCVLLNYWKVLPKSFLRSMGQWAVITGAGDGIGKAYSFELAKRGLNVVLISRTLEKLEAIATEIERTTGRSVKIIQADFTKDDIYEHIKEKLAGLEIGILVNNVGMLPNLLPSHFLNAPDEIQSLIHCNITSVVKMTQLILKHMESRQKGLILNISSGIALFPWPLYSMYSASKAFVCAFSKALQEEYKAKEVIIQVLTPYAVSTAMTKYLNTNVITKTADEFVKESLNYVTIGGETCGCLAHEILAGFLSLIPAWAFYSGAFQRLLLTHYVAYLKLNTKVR
From the text: (§1) Biological Testing Materials and Methods 1. Inhibition of the 17β-hydroxysteroid dehydrogenase type 1, type 2 and type 3 enzyme
(§2) The compounds were screened in respect of 17β-HSD enzyme activity in vitro on established M CF-7 cell lines, each stably expressing one of the respective 17β-HSD isoenzymes. The interconversion of substrate by each isoenzyme and the 17β-HSD inhibiting activity of chemical compounds in these cell lines were detected by HPLC system.
(§3) Varying amounts of the test compounds were incubated in the growth medium of the 17β-HSD expressing cells together tritium labeled substrate (2 nM estrone for 17β-HSD type 1; 2 nM estradiol for 17β-HSD type 2; and 2 nM androstenedione for 17β-HSD type 3). The medium samples were removed after exact incubation time and the reaction is stopped by trichloroacetic acid (TCA). The samples were analyzed by HPLC-coupled flow scintillation analysis.
(§4) For each enzyme type, the HSD-inhibiting activity of an individual test compound was calculated by comparing the conversion of a control sample without any test compound (referred to as “Negative Control”) to the (reduced) conversion of the test sample containing the particular compound to be tested (referred to as “Test Sample”).
(§5) Two concentrations of each compound were used. The number of the compound refers to the numbers indicated in the Experimental Section.

[2] = target: T2, 17β-hydroxysteroid dehydrogenase type 2 (Homo sapiens, UniProt P37059); assay: Inhibition of 17β-HSD type 2 in MCF-7 cells stably expressing the isoenzyme (HPLC, tritium labeled estradiol); details: 2 nM estradiol, read-out: % Inhibition of the 17β-HSD enzyme type 2 (HSD2); for inhibition at 1 µM: MCF7, 1 μM compound; for inhibition at 10 µM: MCF7, 10 μM compound
T2 construct: expressed in transfected cells; host or cells: MCF-7
T2 sequence (P37059 1-387): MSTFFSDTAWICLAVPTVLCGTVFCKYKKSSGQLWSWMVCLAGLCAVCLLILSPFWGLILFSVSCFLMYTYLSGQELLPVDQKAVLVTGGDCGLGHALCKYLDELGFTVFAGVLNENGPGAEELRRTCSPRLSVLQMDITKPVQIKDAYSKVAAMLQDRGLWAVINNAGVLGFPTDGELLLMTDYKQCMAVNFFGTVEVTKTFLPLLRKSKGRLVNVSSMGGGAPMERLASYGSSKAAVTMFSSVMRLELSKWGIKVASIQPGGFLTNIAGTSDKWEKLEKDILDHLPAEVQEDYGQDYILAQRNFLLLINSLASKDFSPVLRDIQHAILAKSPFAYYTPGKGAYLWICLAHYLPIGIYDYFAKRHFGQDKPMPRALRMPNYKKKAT
From the text: as §1, §2, §3, §4, §5

[3] = target: T3, 17β-hydroxysteroid dehydrogenase type 1 (Homo sapiens, UniProt P14061); assay: Inhibition of 17β-HSD type 1 in MCF-7 cells stably expressing the isoenzyme (HPLC, tritium labeled estrone); details: 2 nM estrone; for inhibition at 1 µM: MCF7, 1 μM compound; for inhibition at 1 µM / inhibition at 10 µM: read-out: % Inhibition of the 17β-HSD enzyme type 1 (HSD1); for inhibition at 10 µM: MCF7, 10 μM compound
T3 construct: expressed in transfected cells; host or cells: MCF-7
T3 sequence (P14061 1-328): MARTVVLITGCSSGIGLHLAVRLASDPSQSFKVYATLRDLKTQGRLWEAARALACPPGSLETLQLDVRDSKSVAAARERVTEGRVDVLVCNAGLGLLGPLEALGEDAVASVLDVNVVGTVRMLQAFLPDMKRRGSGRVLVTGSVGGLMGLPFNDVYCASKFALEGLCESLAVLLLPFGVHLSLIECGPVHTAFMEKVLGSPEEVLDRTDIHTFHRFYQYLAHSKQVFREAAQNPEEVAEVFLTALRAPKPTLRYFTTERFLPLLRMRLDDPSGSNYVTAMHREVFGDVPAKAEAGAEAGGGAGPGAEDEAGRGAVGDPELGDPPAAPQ
From the text: as §1, §2, §3, §4, §5

Structure (SMILES)	inhibition at 1 µM [1] [%]	inhibition at 10 µM [1] [%]	inhibition at 1 µM [2] [%]	inhibition at 10 µM [2] [%]	inhibition at 1 µM [3] [%]	inhibition at 10 µM [3] [%]	% Inhibition of the 17β-HSD enzyme type 3 (HSD3) ([1]; 1 μM compound)	% Inhibition of the 17β-HSD enzyme type 3 (HSD3) ([1]; 10 μM compound)	% Inhibition of the 17β-HSD enzyme type 1 (HSD1) ([3]; 1 μM compound) [%]	% Inhibition of the 17β-HSD enzyme type 1 (HSD1) ([3]; 10 μM compound) [%]
O=c1c2c3c(sc2nc2n1CCCCC2)CCCC3 [Compound 2a, 2,3,4,7,8,9,10,11-Octahydro[1]benzothieno[2′,3′:4,5]pyrimido-[1,2-a]azepin-13(1H)-one]	39	24.9	16.2	23.4	10	45.9	–	–	–	–
O=c1c2c3c(sc2nc2n1CCCCC2)CCC3 [Compound 2b, 1,2,3,6,7,8,9,10-Octahydro-12H-cyclopenta[4′,5′]thieno[2′,3′:4,5]pyrimido[1,2-a]-azepin-12-one]	4.2	9.5	15.9	21.4	21	15	–	–	–	–
O=c1c2c3c(sc2nc2n1CCCCC2)CCCCC3 [Compound 2c, 1,2,3,4,5,8,9,10,11,12-Decahydro-14H-cyclohepta[4′,5′]thieno[2′,3′:4,5]pyrimido-[1,2-a]azepin-14-one]	50.8	47	8.9	13.5	22.7	39.8	–	–	–	–
O=c1c2c3c(sc2nc2n1CCCC2)CCCC3 [Compound 2e, 1,2,3,4,7,8,9,10-Octahydro-12H-[1]benzothieno[2,3-d]pyrido[1,2-a]pyrimidin-12-one]	46.8	38.8	26	28.9	15.8	20	–	–	–	–
O=c1c2c3c(sc2nc2n1CCC2)CCCC3 [Compound 2f, 2,3,6,7,8,9-Hexahydro[1]benzothieno[2,3-d]pyrrolo[1,2-a]pyrimidin-10(1H)-one]	48.2	40.4	37	32.4	19.9	19.2	–	–	–	–
Cc1nc2sc3c(c2c(=O)n1C)CCCC3 [Compound 2g, 5,6,7,8-Tetrahydro-2,3-dimethyl[1]benzothieno[2,3-d]pyrimidin-4(3H)-one]	51.7	51.3	44.9	24.9	30.7	37	–	–	–	–
CCc1nc2sc3c(c2c(=O)n1C)CCCC3 [Compound 2i, 5,6,7,8-Tetrahydro-2-ethyl-3-methyl[1]benzothieno[2,3-d]pyrimidin-4(3H)-one]	4.4	9.9	20.6	29.4	12.7	18.5	–	–	–	–
O=C1CCc2c1sc1nc3n(c(=O)c21)CCCCC3 [Compound 3b, 1,2,6,7,8,9,10-heptahydrocyclopenta[4′,5′]thieno[2′,3′:4,5]pyrimido[1,2-a]-azepin-3,12-dione]	0.3	13.7	14.1	25.4	13.5	20.7	–	–	–	–
O=C1CCCc2c1sc1nc3n(c(=O)c21)CCCCCC3 [Compound 3d, 1,2,7,8,9,10,11,12-octahydro[1]benzothieno[2′,3′:4,5]pyrimido-[1,2-a]azocin-4, 14(3H)-dione]	15.3	–	14.1	11.1	14.3	42.9	22.3%	16.7% and 8.1%	18.2	37.6
O=C1CCCc2c1sc1nc3n(c(=O)c21)CCCC3 [Compound 3e]	38.5	47.4	25.7	16.3	6.3	35.8	–	–	–	–
O=C1CCCc2c1sc1nc3n(c(=O)c21)CCC3 [Compound 3f, 2,3,8,9-Tetrahydro[1]benzothieno[2,3-d]pyrrolo[1,2-a]pyrimidine-6,10(1H,7H)-dione]	43.9	40.2	31.1	21.8	8.7	22	–	–	–	–
O=CC1=C(Cl)c2sc3nc4n(c(=O)c3c2CC1)CCCCCC4 [Compound 4b, 4-Chloro-1,2,3,7,8,9, 10,11,12-octahydro[1]benzothieno[2′,3′:4,5]pyrimido-[1,2-a]-azocin-14-one-4-carboxyaldehyde]	–	42.1	3.5	1.5	36.9	82.1	5.3% and 14.3%	43.9%	31.2	80.1
Cn1cnc2sc3c(c2c1=O)CCC(C=O)=C3Cl [Compound 4e, 8-Chloro-5,6-dihydro-3-methyl[1]benzothieno[2,3-d]pyrimidin-4(3H)-one-7-carboxyaldehyde]	9.8	14.2	9.6	28.3	23.5	44.4	11.1%	17.3%	24.6	52.1
CCSC1=C(C=O)CCc2c1sc1nc3n(c(=O)c21)CCCCC3 [Compound 5b, 1,2,7,8,9,10,11,13-Octahydro-13-oxo-4-(ethylthio)[1]benzothieno[2′,3′:4,5]-pyrimido-[1,2-a]azepine-3-carboxaldehyde]	43.4	100	19.7	25.2	66.1	100	–	–	–	–
CC1CCc2c(sc3nc4n(c(=O)c23)CCCCC4)C1O (stereo not shown) [Compound 32, 4-Hydroxy-3-methyl-2,3,4,7,8,9,10,1-octahydro [1]benzothieno[2′,3′: 4,5]pyrimido-[1,2-a]azepin-13(1H)-one]	–	–	14	-5.1	19.7	22.5	–	–	–	–
CCCSC1=C(C=O)CCc2c1sc1nc3n(c(=O)c21)CCC(C(=O)O)CC3 (stereo not shown) [Compound 33, 3-Formyl-1,2,7,8,9,10,11,13-octahydro-13-oxo-4-(propylthio)-[1]benzothieno[2′,3′: 4,5] pyrimido[1,2-a]azepine-9-carboxylic acid]	–	–	5	-0.1	15.3	22.6	–	–	–	–
CCCSC1=C(C=O)CCc2c1sc1nc3n(c(=O)c21)CCC(C)CC3 (stereo not shown) [Compound 34, 9-Methyl-1,2,7,8,9,10,11,13-octahydro-13-oxo-4-(propylthio)-[1]benzothieno[2′,3′: 4,5]-pyrimido[1,2-a]azepine-3-carbaldehyde]	–	–	13	-0.5	14.9	48.1	–	–	–	–
